Source: ChEMBL document CHEMBL5316353, “Antitarget, Anti-SARS-CoV-2 Leads, Drugs, and the Drug Discovery-Genetics Alliance Perspective” (J Med Chem, 2023)
Square brackets hold non-standard residues; d marks the D form. Peptide text beside a SMILES is read from it. βAla = NCCC(=O)O

Columns and labels:
[1] = biological target: Replicase polyprotein 1ab (Severe acute respiratory syndrome-related coronavirus, UniProt P0C6X7); test: Binding affinity to SARS-CoV-1 MPro assessed as inhibition constant
[2] = Inhibition of HCoV-229E MPro; parameters: species or system Human coronavirus 229E
SARS-CoV [3] = format: functional, organism-based, Vero E6; settings: Severe acute respiratory syndrome-related coronavirus, Vero C1008
Human coronavirus 229E = test: microbe, parasite or virus in culture; settings: MRC5
SARS-CoV-2 [4] = test: microbe, parasite or virus in culture; settings: Severe acute respiratory syndrome coronavirus 2
Procathepsin L = Procathepsin L (Homo sapiens, UniProt P07711); test: Inhibition of recombinant cathepsin L (unknown origin)
Sequence of Procathepsin L (P07711 whole entry): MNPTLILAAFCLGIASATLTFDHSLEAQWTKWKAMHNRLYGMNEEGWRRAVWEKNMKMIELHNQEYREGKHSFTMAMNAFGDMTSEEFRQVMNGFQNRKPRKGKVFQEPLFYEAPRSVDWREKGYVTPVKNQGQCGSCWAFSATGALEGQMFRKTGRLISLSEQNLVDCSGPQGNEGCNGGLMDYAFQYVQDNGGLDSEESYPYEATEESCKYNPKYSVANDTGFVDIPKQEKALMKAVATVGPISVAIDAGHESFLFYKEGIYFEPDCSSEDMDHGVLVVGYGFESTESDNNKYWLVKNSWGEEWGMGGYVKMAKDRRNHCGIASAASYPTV

[5] = biological target: Replicase polyprotein 1ab (Severe acute respiratory syndrome coronavirus 2, UniProt P0DTD1); test: Inhibition of SARS-CoV-2 MPro
[6] = test system: Middle East respiratory syndrome-related coronavirus; format: functional, organism-based, Vero E6; settings: Vero C1008
[7] = test system: Middle East respiratory syndrome-related coronavirus; test: Antiviral activity against MERS-CoV assessed as inhibition of viral growth by cell-cell fusion assay; format: functional, organism-based
SARS-CoV-2 [8] = test: Antiviral activity against SARS Cov-2 pseudovirions assessed as inhibition of viral entry into 293/hACE2 cells at 2 uM relative to control; format: functional, Severe acute respiratory syndrome coronavirus 2, 293T/ACE2; parameters: scale not given: the % may be the effect or the level left
SARS-CoV-2 [9] = test: microbe, parasite or virus in culture; settings: Severe acute respiratory syndrome coronavirus 2; remark: listed apart in the source
[10] = test system: Middle East respiratory syndrome-related coronavirus; test: Antiviral activity against MERS-CoV infected in human Huh-7 cells assessed as reduction of viral growth; format: functional, organism-based
[11] = Cytotoxicity in African green monkey Vero cells by MTT assay; format: toxicity, cell-based; settings: chlorocebus sabaeus
SARS-CoV [12] = test: Antiviral activity against SARS-CoV-1 infected in HAE cells assessed as inhibition of viral replication; format: functional, organism-based; settings: Severe acute respiratory syndrome-related coronavirus
[13] = Inhibition of MERS-CoV MPro; parameters: species or system Middle East respiratory syndrome-related coronavirus
[14] = Binding affinity to HCoV-NL63 MPro assessed as inhibition constant; parameters: species or system Human coronavirus NL63
SARS-CoV-2 [15] = format: functional, organism-based; settings: Severe acute respiratory syndrome coronavirus 2
Human coronavirus OC43 = test: Antiviral activity against HCoV-OC43 infected in human Huh-7 cells assessed as reduction of viral growth; format: functional, organism-based; settings: Betacoronavirus 1, Huh-7
SARS-CoV-2 [16] = test: Antiviral activity against SARS-CoV-2 Beta assessed as reduction of viral growth; format: functional, organism-based; settings: Severe acute respiratory syndrome coronavirus 2, Beta
SARS-CoV-2 [17] = test: Antiviral activity against SARS-CoV-2 Gamma assessed as reduction of viral growth; format: functional, organism-based; settings: Severe acute respiratory syndrome coronavirus 2, Gamma
SARS-CoV-2 [18] = test: Antiviral activity against SARS-CoV-2 Delta assessed as reduction of viral growth; format: functional, organism-based; settings: Severe acute respiratory syndrome coronavirus 2, Delta
SARS-CoV-2 [19] = test: Antiviral activity against SARS-CoV-2 Omicron assessed as reduction of viral growth; format: functional, organism-based; settings: Severe acute respiratory syndrome coronavirus 2, Omicron
[20] = biological target: Transmembrane protease serine 2 (Homo sapiens) (UniProt O15393); test: Binding affinity to TMPRSS2 (unknown origin) assessed as inhibition constant by fluorescence-based assay
Sequence of Transmembrane protease serine 2 (Homo sapiens) (O15393 1-255 limits assumed): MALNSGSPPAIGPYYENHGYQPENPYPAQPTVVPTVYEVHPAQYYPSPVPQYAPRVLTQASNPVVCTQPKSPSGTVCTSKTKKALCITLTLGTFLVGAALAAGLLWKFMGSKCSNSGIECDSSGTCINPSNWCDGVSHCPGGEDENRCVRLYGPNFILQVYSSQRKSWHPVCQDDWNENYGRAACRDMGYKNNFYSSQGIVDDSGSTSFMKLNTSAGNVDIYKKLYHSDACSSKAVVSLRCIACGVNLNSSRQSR
Sequence of Transmembrane protease serine 2 (Homo sapiens) (O15393 256-492 limits assumed): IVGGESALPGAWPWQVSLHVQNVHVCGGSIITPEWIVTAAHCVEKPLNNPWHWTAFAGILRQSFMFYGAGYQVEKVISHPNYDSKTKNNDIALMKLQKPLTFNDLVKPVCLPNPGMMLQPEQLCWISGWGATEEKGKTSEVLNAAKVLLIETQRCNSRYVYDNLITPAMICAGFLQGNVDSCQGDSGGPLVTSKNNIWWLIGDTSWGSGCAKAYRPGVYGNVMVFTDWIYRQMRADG

## COc1cccc2[nH]c(C(=O)N[C@@H](CC(C)C)C(=O)N[C@@H](C[C@@H]3CCNC3=O)C(=O)CO)cc12 [PF-00835231]
[1]
  Ki: 4.94 nM
[2]
  IC50: 4 nM

## C[C@@H](OC(C)(C)C)[C@H](NC(=O)OCc1ccccc1)C(=O)N[C@@H](CC1CCCCC1)C(=O)N[C@H](C=O)C[C@@H]1CCNC1=O
SARS-CoV [3]
  IC50: 600 nM
Human coronavirus 229E
  IC50: 140 nM

## CN(C)C(=O)COC(=O)Cc1ccc(OC(=O)c2ccc(NC(=N)N)cc2)cc1 [CAMOSTAT]
SARS-CoV-2 [4]
  EC50: 700 nM

## CCOC(=O)[C@H]1OC1C(=O)N[C@@H](CC(C)C)C(=O)NCCC(C)C (some centres undefined)
Procathepsin L
  IC50: 180 nM

## O=C[C@H](C[C@@H]1CCNC1=O)NC(=O)[C@H](Cc1ccccc1)NC(=O)c1cc2ccccc2[nH]1
[5]
  IC50: 34 nM

## CC[C@H](C)[C@H](NC(=O)[C@H](Cc1ccc(O)cc1)NC(=O)[C@H](CO)NC(=O)[C@H](CCC(=O)O)NC(=O)[C@H](CC(N)=O)NC(=O)[C@H](CC(C)C)NC(=O)[C@H](C)NC(=O)[C@H](CCCCN)NC(=O)[C@@H](NC(=O)[C@@H](NC(=O)[C@H](CCC(N)=O)NC(=O)[C@H](CCC(N)=O)NC(=O)[C@H](CC(C)C)NC(=O)[C@H](CO)NC(=O)[C@H](CC(C)C)NC(=O)[C@H](CCSC)NC(=O)[C@H](CCC(=O)O)NC(=O)[C@H](Cc1ccc(O)cc1)NC(=O)[C@@H](NC(=O)[C@H](CC(C)C)NC(=O)[C@H](CC(=O)O)NC(=O)[C@H](CC(C)C)NC(=O)[C@H](CC(C)C)NC(=O)[C@@H](NC(=O)[C@@H](NC(=O)[C@H](CC(N)=O)NC(=O)[C@@H](NC(=O)[C@H](CCC(N)=O)NC(=O)[C@@H](NC(=O)[C@H](CC(C)C)NC(=O)[C@@H](N)CO)[C@@H](C)O)[C@@H](C)CC)[C@@H](C)O)[C@@H](C)O)[C@@H](C)O)C(C)C)C(C)C)C(=O)N[C@@H](CC(=O)O)C(=O)N[C@@H](CC(C)C)C(=O)N[C@@H](CCCCN)C(=O)N[C@@H](CCCCN)C(=O)N[C@@H](CCC(=O)O)C(=O)N[C@@H](CC(C)C)C(=O)O
[6]
  IC50: 600 nM
[7]
  IC50: 500 nM

## CCc1ccccc1NC(=O)CSC(=O)NNC(=O)[C@H](Cc1c[nH]c2ccccc12)NC(=O)OC(C)(C)C
SARS-CoV-2 [8]
  Activity: ~76%

## CC(=O)N[C@@H]1[C@H](Oc2c3cc4cc2Oc2ccc(cc2Cl)[C@@H](O[C@@H]2O[C@@H](CO)[C@@H](O)[C@H](O)[C@@H]2NC(C)=O)[C@@H]2NC(=O)[C@H](NC(=O)[C@@H]4NC(=O)[C@H]4NC(=O)[C@@H](Cc5ccc(c(Cl)c5)O3)NC(=O)[C@H](N)c3ccc(O)c(c3)Oc3cc(O)cc4c3)c3ccc(O)c(c3)-c3c(O[C@H]4O[C@H](CO)[C@@H](O)[C@@H](O)[C@@H]4O)cc(O)cc3[C@@H](C(=O)O)NC2=O)O[C@@H](CO)[C@@H](O)[C@@H]1O
SARS-CoV-2 [9]
  IC50: 1600 nM

## CC[C@H](C)[C@H](N)C(=O)N[C@@H](CCC(=O)O)C(=O)N[C@@H](CCC(=O)O)C(=O)N[C@H](C(=O)N[C@@H](CO)C(=O)N[C@@H](CCCCN)C(=O)N[C@@H](CCCCN)C(=O)N[C@H](C(=O)N[C@@H](CCC(=O)O)C(=O)N[C@@H](CCC(=O)O)C(=O)N[C@H](C(=O)N[C@@H](CO)C(=O)N[C@@H](CCCCN)C(=O)N[C@@H](CCCCN)C(=O)N[C@H](C(=O)N[C@@H](CCC(=O)O)C(=O)N[C@@H](CCC(=O)O)C(=O)N[C@H](C(=O)N[C@@H](CO)C(=O)N[C@@H](CCCCN)C(=O)N[C@@H](CCCCN)C(=O)N[C@H](C(=O)N[C@@H](CCC(=O)O)C(=O)N[C@@H](CCC(=O)O)C(=O)N[C@H](C(=O)N[C@@H](CO)C(=O)N[C@@H](CCCCN)C(=O)N[C@@H](CCCCN)C(=O)N[C@H](C(=O)N[C@@H](CCC(=O)O)C(=O)N[C@@H](CCC(=O)O)C(=O)N[C@H](C(=O)N[C@@H](CO)C(=O)N[C@@H](CCCCN)C(=O)N[C@@H](CCCCN)C(=O)NCCC(=O)N[C@@H](CCCCN)C(=O)O)[C@@H](C)CC)[C@@H](C)CC)[C@@H](C)CC)[C@@H](C)CC)[C@@H](C)CC)[C@@H](C)CC)[C@@H](C)CC)[C@@H](C)CC)[C@@H](C)CC (H-IEEISKKIEEISKKIEEISKKIEEISKKIEEISKK[βAla]K-OH)
[10]
  EC50: 100 nM

## CCC(CC)COC(=O)[C@H](C)NP(=O)(OC[C@@H]1O[C@](C#N)(c2ccc3c(N)ncnn23)[C@@H](O)[C@H]1O)Oc1ccccc1 (some centres undefined)
[11]
  CC50: > 100000 nM
SARS-CoV [12]
  IC50: 69 nM

## CC(C)(C)OC(=O)Nc1cccn([C@@H](CC2CC2)C(=O)N[C@@H](C[C@@H]2CCNC2=O)C(=O)C(=O)NCc2ccccc2)c1=O
[13]
  IC50: 580 nM

## Cc1cc(C(=O)N[C@@H](C)C(=O)N[C@H](C(=O)N[C@@H](CC(C)C)C(=O)N[C@H](/C=C/C(=O)OCc2ccccc2)C[C@@H]2CCNC2=O)C(C)C)no1
[14]
  Ki: 11300 nM
Human coronavirus 229E
  IC50: 140 nM

## NC1(C(=O)N[C@@H](CCO)c2ccc(Cl)cc2)CCN(c2nc[nH]c3nccc2-3)CC1 [CAPIVASERTIB]
SARS-CoV-2 [15]
  IC50: 2330 nM

## COc1cccc2[nH]c(C(=O)N[C@@H](CC(C)C)C(=O)N[C@@H](C[C@@H]3CCCNC3=O)C(=O)COC(=O)c3c(C)cc(C)nc3C)cc12
Human coronavirus OC43
  EC50: 90 nM

## COc1ccc(C(=O)Nc2cccc(C(F)(F)F)c2)cc1Nc1nc(-c2cccnc2)c2[nH]ccc2n1
SARS-CoV-2 [16]
  EC50: 12.4 nM
SARS-CoV-2 [17]
  EC50: < 6.9 nM
SARS-CoV-2 [18]
  EC50: < 6.9 nM
SARS-CoV-2 [19]
  EC50: < 6.9 nM

## N=C(N)c1cccc(C[C@H](NS(=O)(=O)c2cccc(-c3ccc(Cl)cc3Cl)c2)C(=O)N2CCC(CCN)CC2)c1
[20]
  K: 0.9 nM
